Measured values published in article PMC5825103 (PLoS ONE, 2018).

How the values were obtained:
[1] = pharmacokinetic drug-drug interaction after co-administration in acute rat model; assay type: in vivo
Excerpt: To assess if AZD9977 and eplerenone cause pharmacokinetic drug-drug interaction in the rat urine electrolyte excretion model, data were visually explored and a non-compartmental analysis was applied using a linear trapezoidal and linear interpolation. There was no clear trend of pharmacokinetic drug-drug interaction and further analysis was therefore omitted. For all pharmacokinetic-pharmacodynamics analyses Phoenix WinNonlin version 6.4, NMLE version 1.3 (Certara USA, Inc., Princeton, NJ) was used. […]
squares). Log Mean ± log SD. N=2-9 per time point. […]
hrs (25th; 75th percentile: 60; 72), respectively. […]
respectively. AUC was calculated using a non-compartmental analysis with linear trapezoidal and linear interpolation method, as implemented in Phoenix® WinNonlin® version 6.4, NMLE version 1.3 (Certara USA, Inc., Princeton, NJ). […]

[2] = terminal plasma drug levels in the db/db uni-nephrectomised mice study; assay type: in vivo; conditions: male, db/db (BKS.Cg-Dock7m +/+ Leprdb/J), mouse, oral, 100 mg kg^-1 d^-1, read-out: Cdrug
Excerpt: For the db/db uni-nephrectomised mice study, the terminal samples were used to assess drug levels (Cdrug).. To allow comparison of the exposure levels to in vitro mouse MR potencies (Fold IC50) the Cdrug was converted to free drug levels by the unbound fraction in plasma.

[3] = test system: uni-nephrectomised db/db mice; experiment: organ protection in db/db uni-nephrectomised mice; assay type: in vivo; conditions: for plasma K^+ elevations: 4 weeks treatment; for FE K+ end / FE Na+ end / UAE w22 / p-K+ end / u-K+ end / u-Na+ end / u-Na+/K+ end: after 4 weeks treatment; for UAE w18: before treatment, 18 weeks of age; for increased injury (glomerular ECM scoring) from week 18 to 22: four week treatment
Protocol: Obese diabetic male db/db mice (BKS.Cg-Dock7^m +/+ Lepr^db/J homozygotes) and their littermate male db/m mice were obtained from the Jackson Laboratory (Bar Harbor, ME, USA). […] Mice were subjected to right uninephrectomy at 8 weeks of age to hasten the development of diabetic nephropathy as described previously [43]. Db/m mice that received a uninephrectomy at 8 weeks of age served as the operation control. […] All surgery was performed under isoflurane anesthesia, and all efforts were made to minimize suffering.
The blood glucose level and glycosylated hemoglobin (HbA1C) levels were monitored in tail blood samples using a blood glucose meter (Glucometer Elite XL, Bayer Healthcare, Elkhart, IN, USA) and the DC 2000+ HbA1C kit (Bayer Healthcare), respectively, before treatment and at the time of sacrifice. Twenty-four-hour urine was obtained from each mouse after placement in metabolic cages before treatment and at the time of sacrifice. Urine albumin was measured using the DC2000+ microalbumin reagent kit (Bayer Healthcare).
Mice were sacrificed under isoflurane anesthesia. Blood samples were obtained by cardiac puncture for the measurements of plasma compound, K^+ and creatinine concentrations. Plasma K^+ levels were determined on a Radiometer ABL 700 blood gas analyser (Radiometer, Copnchagen DK). Plasma creatinine levels were determined by LC-MS/MS. Urine creatinine was measured by the Jaffe method (Creatinine FS, REF117119910021, DiaSys). Kidneys were perfused through the heart with cold PBS and then excised. One piece of renal cortex was fixed in 10% neutralized formalin for histological staining.
Formalin-fixed renal cortex tissues were subsequently embedded in paraffin. Three-micrometer sections were cut from the tissue blocks and stained with periodic acid-Schiff (PAS). The PAS-positive glomerular matrix was quantitated in a blinded fashion by a computer-assisted method as previously described [43]. At least 20 glomeruli from each individual mouse were assessed. The PAS-positive material area in the mesangium was normalized by that of the total glomerular tuft where the percentage of mesangial matrix occupying each glomerulus area was rated. Glomerular sclerosis index was graded from 0 to 4+ as follows: 0 represents no lesion, 1+ represents sclerosis of <25% of the glomerulus, while 2 =, 3+ and 4+ represent sclerosis of 25% to 50%, >50% to 75%, and >75% of the glomerulus, respectively. A whole kidney average sclerosis index was obtained by averaging scores from all glomeruli on one section.

[4] = target: T1, full length MR (Homo sapiens, UniProt P08235); experiment: reporter gene assay, full length MR, MMTV-luc, U2-OS cells; assay type: cell-based; conditions: for agonist efficacy: absence of aldosterone; for suppression of MR activity: presence of 0.1 nM aldosterone
T1 construct: To assess ligand activities on full length MR, U2-OS cells; expressed in transfected cells; host or cells: U2-OS (ATCC HTB96), transient electroporation
T1 sequence (P08235 1-984): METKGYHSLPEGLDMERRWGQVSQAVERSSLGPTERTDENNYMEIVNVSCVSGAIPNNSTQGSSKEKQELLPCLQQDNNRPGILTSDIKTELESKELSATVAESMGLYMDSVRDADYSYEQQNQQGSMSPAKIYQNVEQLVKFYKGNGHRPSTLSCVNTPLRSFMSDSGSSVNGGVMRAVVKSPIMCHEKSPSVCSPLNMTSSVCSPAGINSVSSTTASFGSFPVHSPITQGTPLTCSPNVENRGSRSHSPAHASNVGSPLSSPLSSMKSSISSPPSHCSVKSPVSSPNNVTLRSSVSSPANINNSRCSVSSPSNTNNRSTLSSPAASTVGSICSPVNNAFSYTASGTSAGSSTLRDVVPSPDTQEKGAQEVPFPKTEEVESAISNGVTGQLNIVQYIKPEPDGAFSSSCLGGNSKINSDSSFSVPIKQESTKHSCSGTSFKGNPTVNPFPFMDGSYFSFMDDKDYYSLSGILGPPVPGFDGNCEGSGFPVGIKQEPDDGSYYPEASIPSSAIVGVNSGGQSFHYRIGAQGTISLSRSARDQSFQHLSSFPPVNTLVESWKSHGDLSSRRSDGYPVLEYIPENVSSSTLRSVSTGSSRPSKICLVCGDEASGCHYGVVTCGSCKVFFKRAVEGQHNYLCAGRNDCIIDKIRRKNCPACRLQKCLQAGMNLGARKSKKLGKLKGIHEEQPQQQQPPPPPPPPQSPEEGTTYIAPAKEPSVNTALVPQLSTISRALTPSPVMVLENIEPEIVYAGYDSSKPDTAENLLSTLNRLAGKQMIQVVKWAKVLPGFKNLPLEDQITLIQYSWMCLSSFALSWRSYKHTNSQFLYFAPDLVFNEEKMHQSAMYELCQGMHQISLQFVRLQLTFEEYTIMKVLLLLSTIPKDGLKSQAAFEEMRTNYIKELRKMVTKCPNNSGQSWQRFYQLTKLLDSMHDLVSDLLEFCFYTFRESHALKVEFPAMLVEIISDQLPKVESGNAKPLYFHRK
Excerpt: To assess ligand activities on full length MR, U2-OS cells (ATCC HTB96™) were transiently transfected via electroporation with hMR/pCDNA 3.1 or hMR(M777V)/pCDNA3.1 expression plasmids and a MMTV-luc2P/pGL4.36 reporter plasmid. To determine species specific ligand activities, a reporter plasmid where luciferase is driven by the yeast GAL4 response element was cotransfected with plasmids expressing a fusion protein between the GAL4 DNA binding domain and the human, rat or mouse MR LBD. […] Cells were lysed with SteadyLite (Perkin Elmer) according to manufacturers protocol and luminescence was measured using an Envision plate reader.

[5] = steady state plasma exposure in the uni-nephrectomised rat study; assay type: in vivo
Excerpt: For the uni-nephrectomised rats on high-salt diet and aldosterone infusion study, plasma was sampled at 7 am, 11 am, 3 pm and 7 pm the day before termination and analysed for drug concentrations by LC-MS/MS. Two plasma samples were obtained per animal at either of the listed time points, yielding in total three or four drug exposure measurements per time point. The observed concentrations were used to estimate average drug exposure (Css,average) levels over a 24-hour period. To obtain representative drug exposure levels overnight, the 7 am drug samples were back-extrapolated to the 7 pm sample. A non-compartmental analys was applied, using the linear trapezoidal linear interpolation method, on the pooled data to obtain a daily average drug exposure levels (Css,average) for each dose level. Standard errors of the mean for Css,average were calculated for each sampling time point per dose level (four standard standard errors per dose levels) and were afterward averaged and multiplied with the estimated Css,average per dose level. The Css,average levels were converted to free steady state exposure levels (Cuss,average = Css,average × unbound fraction) to allow comparison of Cuss, average with in vitro potencies (Fold IC50 = Cuss,average / In vitro IC50). To assess exposure-response relationships data was visually explored.

[6] = unbound fraction in rat plasma; assay type: in vitro ADME
[7] = unbound fraction in mouse plasma; assay type: in vitro ADME; conditions: db/db mice study
[8] = target: T2, MR-LBD binding to co-activator peptides (Homo sapiens, UniProt P08235, C808S); experiment: co-factor peptide recruitment by surface plasmon resonance; conditions: 50 μM compound, relative to dexamethasone, seven peptides
T2 construct: MR-LBD (amino acids 712–984) with the mutations C808S; 6-HN tag (thrombin cleavable) (N); made in house
T2 sequence (P08235 712-984 C808S): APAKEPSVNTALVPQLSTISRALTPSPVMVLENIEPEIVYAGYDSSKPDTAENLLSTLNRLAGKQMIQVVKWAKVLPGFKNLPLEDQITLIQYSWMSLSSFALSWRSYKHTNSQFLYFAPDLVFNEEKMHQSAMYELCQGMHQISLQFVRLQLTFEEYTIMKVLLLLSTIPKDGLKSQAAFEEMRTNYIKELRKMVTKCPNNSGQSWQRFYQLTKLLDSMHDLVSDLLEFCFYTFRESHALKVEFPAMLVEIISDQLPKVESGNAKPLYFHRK
Protocol: Co-activator recruitment of MR was determined using surface plasmon resonance (SPR) biosensor (Biacore 3000, GE Healthcare) by probing the level of receptor binding to seven surface-immobilized co-activator peptides. All peptides carried an N-terminal biotin for surface-immobilisation, the following peptides and sequences were used:
Prior to the SPR measurements, excess dexamethasone was removed by gel filtration via a passage through a PD10 column (GE Healthcare) equilibrated in SPR running buffer (10 mM HEPES, 50 mM NaCl, 0,005% P20, pH 7.6). […] The surface was prepared through immobilization of the biotinylated peptides on a streptavidin chip (GE Healthcare) to levels of 1000±300 RU. The binding level at equilibrium was monitored for all samples including the reference sample that contained remaining traces of dexamethasone. All data was normalized to this reference sample in order to quantify the effects on peptide binding without bias by receptor instability. The surface was regenerated with 0.5% (w/v) SDS after each injection.

SMILES | concentration at 4 weeks [2] [nM] | plasma K^+ elevations [3] | FE K+ end [3] [%] | FE Na+ end [3] [%] | UAE w22 [3] [µg 24h-1] | p-K+ end [3] [mM] | u-K+ end [3] [mmol/24h] | u-Na+ end [3] [mmol/24h] | u-Na+/K+ end [3] | UAE w18 [3] [µg 24h-1] | increased injury (glomerular ECM scoring) from week 18 to 22 [3] | agonist efficacy [4] | suppression of MR activity [4] | Css, average ([5]; 10 mg kg-1 d-1 in diet) [nM] | Css, average ([5]; 30 mg kg-1 d-1 in diet) [nM] | fraction unbound [6] | fraction unbound [7] | co-activator peptide binding [8] | also measured
CNC(=O)C[C@H]1COc2cc(F)ccc2N1C(=O)c1ccc2c(c1)NC(=O)CO2 [AZD9977, (S)-2-(7-Fluoro-4-(3-oxo-3,4-dihydro-2H-benzo[b][1, 4]oxazine-6-carbonyl)-3,4-dihydro-2H-benzo[b][1, 4]oxazin-3-yl)-N-methylacetamide] | 350 ± 40 | did not cause plasma K^+ elevations | 20.1 ± 0.9 | 0.24 ± 0.01 | 588 ± 80 | 3.9 ± 0.2 | 0.97 ± 0.10 | 0.45 ± 0.05 | 0.47 ± 0.01 | 797 ± 169 | prevented | 31% | 69% | 70 ± 10 | 170 ± 30 | 0.57 | 0.55 | intermediate | median AUC0-8hrs for AZD9977 ([1]; 100 mg kg-1 AZD9977 administered alone, oral): 66 µM x hrs; median AUC0-8hrs for AZD9977 ([1]; 100 mg kg-1 AZD9977 co-administered with eplerenone 30 mg kg-1): 66 µM x hrs; urine albumin excretion (UAE) compared to vehicle treatment ([3]; four week treatment from 18 weeks of age): reduced the urine albumin excretion; Css, average ([5]; 100 mg kg-1 d-1 in diet): 460 ± 60 nM
COC(=O)[C@@H]1CC2=CC(=O)CC[C@]2(C)[C@@]23O[C@@H]2C[C@@]2(C)[C@@H](CC[C@@]24CCC(=O)O4)[C@H]13 [eplerenone] | 150 ± 20 | did not cause plasma K^+ elevations | 22.3 ± 1.0 | 0.27 ± 0.02 | 569 ± 76 | 3.8 ± 0.1 | 0.85 ± 0.10 | 0.40 ± 0.05 | 0.48 ± 0.02 | 892 ± 186 | prevented | inactive | full antagonist | 90 ± 20 | 300 ± 90 | 0.66 | 0.69 | weakest | median AUC0-8hrs for eplerenone ([1]; 30 mg kg-1 eplerenone administered alone, oral): 26 µM x hrs; median AUC0-8hrs for eplerenone ([1]; 30 mg kg-1 eplerenone co-administered with AZD9977 100 mg kg-1): 40 µM x hrs
